The text below walks through data of patent US11666071B2, “Compound salt of N,N-dimethylglycine and an organic acid and composition and use thereof” (GUANGZHOU INSIGHTER BIOTECHNOLOGY CO., LTD., priority 2017, dated 2023).

Structures can show the parent of a compound that is named as a salt. Marks after values point to notes of the source that are not given here.

The nature of data set [1]: High-humidity stability test (hygroscopic weight gain). The conditions noted are these: 25° C.; for hygroscopicity / status of sample: RH 95%; for hygroscopicity / status of sample / hygroscopic weight gain, Day 5 (%): day 5; for hygroscopic weight gain, Day 5 (%) / hygroscopic weight gain, Day 10 (%): RH 95%±1%. It counts as physicochemical.
Data set [2] relates to Duroc×Landrace×Large White weaned pigs. Description: Zinc salt of N,N-dimethylglycine and fumaric acid in weaned-pig feed. It counts as in vivo. To be noted: 15 days. From the text:
The pigsty and utensils were disinfected before the experiment. The pigs were kept in pens in the same pigsty under the same breeding conditions during the experiment. […] The groups included a control group, a comparative example and experiment groups 1-6. The control group was provided with only the basic diets, the comparative example was provided with 2500 ppm of zinc oxide, and the experiment groups 1-6 were respectively provided with the basic diets together with the hybrid pellet feed additive product 7 provided by the present invention in different concentrations, as shown in Table 9. […] The experiment was carried out for 15 days. […] The experiment data were analyzed with SPSS18 software.

Data set [3] shares this test system. Description: Copper salt of N,N-dimethylglycine and fumaric acid on weaned pigs. It counts as in vivo, pig. Here is the method:
The […] utensils were disinfected before the experiment. The pigs were kept in pens in the same […] under the same breeding conditions during the experiment. […] The test was carried out for 15 days. […] The experiment data were analyzed with SPSS18 software.

“Calcium N,N-dimethylglycinate [Sample 3, reference compound]”: in data set [1], the “hygroscopicity / status of sample” value is listed as “very high hygroscopicity”; the “hygroscopic weight gain, Day 5 (%)” value turned out to be 38.40 ± 0.22%; the “hygroscopic weight gain, Day 10 (%)” value is given as 41.83 ± 0.35%.
`CN(C)CC(=O)O.Cl` [Sample 1, N,N-dimethylglycine hydrochloride, reference compound]: in data set [1], the “hygroscopicity / status of sample” value was “very high hygroscopicity”; the “hygroscopic weight gain, Day 5 (%)” value worked out at 79.86 ± 0.94%; the “hygroscopic weight gain, Day 10 (%)” value is 80.69 ± 0.59%.
The corresponding values for `CN(C)CC(=O)[O-].[Na+]` [Sample 2, Sodium N,N-dimethylglycinate, reference compound] are “very high hygroscopicity”, 49.09 ± 1.14% and 52.44 ± 0.48%.
Take “Calcium salt of N,N-dimethylglycine and p-methylbenzenesulfonic acid [Sample 10]”: in data set [1], the “hygroscopic weight gain, Day 5 (%)” value worked out at 2.84 ± 0.23% and the “hygroscopic weight gain, Day 10 (%)” value is recorded as 3.01 ± 0.11%.
For “Calcium salt of N,N-dimethylglycine and fumaric acid [Sample 8]”, in that order: 2.95 ± 0.22% and 3.25 ± 0.12%.
With `[O]=[Zn]` [Zinc oxide, reference compound], the FCR in data set [2] (dose 2500 ppm) amounted to 1.808 ± 0.018.
With “Calcium salt of N,N-dimethylglycine and tetradecanoic acid [Sample 9]”, in data set [1], the “hygroscopic weight gain, Day 5 (%)” value is 2.11 ± 0.04% and the “hygroscopic weight gain, Day 10 (%)” value was 2.75 ± 0.32%.
With `CN(C)CC(=O)O` [Sample 6, Calcium salt of N,N-dimethylglycine and sulfuric acid], in data set [1], the “hygroscopicity / status of sample” value is listed as “water-like status”; the “hygroscopic weight gain, Day 5 (%)” value came out at 61.72 ± 0.41%; the “hygroscopic weight gain, Day 10 (%)” value was found to be 60.58 ± 0.21%.
Consider “Copper salt of N,N-dimethylglycine and fumaric acid [Sample 14]”, for which, in data set [3] (30-100 ppm, 15 days), the “effect on the average daily weight gain of weaned pigs” value was “no significant effect” and the “effect on the feed intake of weaned pigs” value was “no significant effect”. For the same compound, the “reduction of feed conversion ratio compared with the control group” value in data set [3] (dose 100 ppm) amounted to 8.61%. Besides, the “dose at which feed conversion ratio is significantly reduced” value in data set [3] (weaned pigs, 15 days) is given as 30-100 ppm. For the same compound, in data set [1], the “hygroscopic weight gain, Day 5 (%)” value is on record as 2.56 ± 0.11% and the “hygroscopic weight gain, Day 10 (%)” value is given as 2.81 ± 0.06%.
For the compound “Zinc salt of N,N-dimethylglycine and fumaric acid [Sample 13]”, the “effect on the feed intake of weaned pigs” value in data set [2] (55-520 ppm) was “no significant effect”. Moreover, in data set [2] (weaned pigs), the “dose at which reduction of feed conversion ratio is significant and equivalent to high-dose zinc oxide” value is on record as “higher than 390 ppm”; the “dose that significantly increases average daily weight gain to the level of 2500 ppm zinc oxide” value is given as “about 260 ppm”. Besides, in data set [1], the “hygroscopic weight gain, Day 5 (%)” value is 2.26 ± 0.09% and the “hygroscopic weight gain, Day 10 (%)” value stood at 2.76 ± 0.23%.
`O.O.O.O.O.O=S(=O)([O-])[O-].[Cu+2]` [Copper sulfate pentahydrate, reference compound]: in data set [3] (dose 250 ppm, 15 days), the “ADFI” value is on record as 94.67 ± 1.33 kg, the “ADG” value was determined as 46.38 ± 1.01 kg and the FCR is recorded as 2.042 ± 0.021^b.
As for `CN(C)CC(=O)[O-].O=C([O-])c1ccccc1.[Cu+2]` [Sample 11], in data set [1], the “hygroscopic weight gain, Day 5 (%)” value amounted to 2.41 ± 0.07% and the “hygroscopic weight gain, Day 10 (%)” value is reported as 2.81 ± 0.10%.
